Reference: paper PMC12703502, “Characterization of Novel Angiotensin-Converting Enzyme Inhibitory Peptides” (ACS Medicinal Chemistry Letters, 2025)
Like-named read-outs stand apart in the source and are kept apart here. Where no end group is shown, it is not given here.

Assays:
[1] = system: ACE C-domain and N-domain; parameters: method as in 2 sources, one per row (each row's own in cited_ref): ref 22 (probable, citation mark not shown) ||| ref 20 (probable, citation mark not shown); details: C-domain vs N-domain; ref 22 (probable, citation mark not shown); cited from earlier work
Description: Both drugs are tripeptides-analogues and present a proline-like C-terminal extremity to interact with the S2′ pocket of ACE, which is composed of Gln281, Tyr520, Lys511, His513, and His353. […] Captopril presents a smaller structure with a sulfhydryl group at the N-terminal to interact with the zinc ion.

[2] = molecular target: Angiotensin-converting enzyme (ACE) (Homo sapiens, UniProt P12821); assay: ACE inhibition, Cushman & Cheung method with slight modifications (HHL substrate); format: biochemical
Description: Characterization of Novel Angiotensin-Converting Enzyme Inhibitory Peptides Camila Innocente-Alves1,2, Sara Luísa Sulzbach1, Emerson Gonçalves Moreira3, Raul Izidoro Carneiro3, Lucélia Santi1,2,3, Hugo Verli2,3, Walter Orlando Beys-da-Silva1,2,3* 1 Faculdade de Farmácia, Universidade Federal do Rio Grande do Sul, Porto Alegre, Brasil 2 Programa de Pós-Graduação em Biologia Celular e Molecular, Universidade Federal do Rio Grande do Sul, Porto Alegre, Brasil
3 Centro de Biotecnologia (CBiot), Universidade Federal do Rio Grande do Sul, Porto Alegre,
* corresponding author: walter.beys@ufrgs.br
Selection of the bioactive peptides
The peptides were selected from a previous virtual screening performed against our chemical library (PepDB), and evaluated in vitro for its antihypertensive potential. The structures of the peptides, […] […]
PyRosetta. […] The molecular docking result was evaluated usin g the Protein-Ligand Interaction Profile (PLIP) tool ( https://plip-tool.biotec.tu-dresden.de/) for characterization of the interactions and PyMOL ( https://www.pymol.org/) visualization. […]
The peptides were synthesized by AminoTech ( São Paulo, Brazil). […] The ability of the peptides to inhibit ACE activity was evaluated by the Cushman & Cheung method with slight modifications. Absorbances were read at 228 nm (Spectramax M2, Molecular Devices) and ACE inhibition was expressed as percentage of inhibition. […]

ACE = details: peony seed peptides, VLSGF vs HWS; cited from earlier work

Chain of Angiotensin-converting enzyme (ACE) (P12821 30-1306, species assumed): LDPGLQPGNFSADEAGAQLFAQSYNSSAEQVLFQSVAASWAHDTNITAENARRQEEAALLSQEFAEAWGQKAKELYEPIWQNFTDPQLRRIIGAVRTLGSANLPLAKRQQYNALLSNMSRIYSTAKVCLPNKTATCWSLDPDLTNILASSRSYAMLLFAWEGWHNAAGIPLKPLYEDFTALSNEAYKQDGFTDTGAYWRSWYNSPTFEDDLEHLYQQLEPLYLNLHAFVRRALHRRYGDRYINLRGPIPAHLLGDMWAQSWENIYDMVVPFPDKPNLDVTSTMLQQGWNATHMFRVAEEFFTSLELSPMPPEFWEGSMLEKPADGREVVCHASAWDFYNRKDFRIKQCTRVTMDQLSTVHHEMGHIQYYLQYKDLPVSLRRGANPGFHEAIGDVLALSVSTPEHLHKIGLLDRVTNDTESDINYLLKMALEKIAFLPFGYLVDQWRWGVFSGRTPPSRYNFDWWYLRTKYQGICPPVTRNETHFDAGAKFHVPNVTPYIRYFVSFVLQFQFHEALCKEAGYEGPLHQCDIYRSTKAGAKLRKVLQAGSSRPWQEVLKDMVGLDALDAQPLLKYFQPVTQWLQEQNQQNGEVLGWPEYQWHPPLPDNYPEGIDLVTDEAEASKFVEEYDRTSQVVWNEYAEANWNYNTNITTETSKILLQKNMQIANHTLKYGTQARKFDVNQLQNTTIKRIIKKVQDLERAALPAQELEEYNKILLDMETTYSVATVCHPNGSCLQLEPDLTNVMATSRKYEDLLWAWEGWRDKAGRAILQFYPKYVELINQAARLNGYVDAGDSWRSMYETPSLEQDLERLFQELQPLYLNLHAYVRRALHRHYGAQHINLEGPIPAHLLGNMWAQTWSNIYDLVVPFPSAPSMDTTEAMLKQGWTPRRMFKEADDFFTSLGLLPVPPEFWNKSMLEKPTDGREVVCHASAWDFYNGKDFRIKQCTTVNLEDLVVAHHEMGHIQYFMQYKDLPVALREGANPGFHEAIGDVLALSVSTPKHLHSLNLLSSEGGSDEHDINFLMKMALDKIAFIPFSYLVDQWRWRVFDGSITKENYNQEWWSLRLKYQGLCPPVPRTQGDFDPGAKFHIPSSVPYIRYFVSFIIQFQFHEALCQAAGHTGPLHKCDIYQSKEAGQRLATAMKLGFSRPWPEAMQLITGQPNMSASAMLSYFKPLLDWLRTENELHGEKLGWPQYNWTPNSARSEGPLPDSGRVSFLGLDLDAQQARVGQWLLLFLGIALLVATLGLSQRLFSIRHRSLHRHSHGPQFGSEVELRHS

NCCCC[C@H](N[C@@H](CCc1ccccc1)C(=O)O)C(=O)N1CCC[C@H]1C(=O)O [Lisinopril]
affinity to ACE domains [1]: higher affinity to the C-domain

MSFLEHFLELK [PepDB_AHP1]
IC50 ([2]; Cushman & Cheung method, HHL substrate, absorbance 228 nm, at least triplicates, nonlinear regression GraphPad Prism 8.0.1, read-out: IC50): 331 µM

VLSGF
relative IC50 (ACE): lower IC50

VWTNCYHLYPAH [PepDB_AHP4]
IC50 [2]: 88.6 µM
